Results reported in patent publication US7741521B2, “Inhibition of bid-induced cell-death using small organic molecules” (The Burnham Institute, priority 2004, dated 2010).
pKd: −log10 of the molar value. “Also recorded” adds a separate entry of the source.

Key:
BID = biological target: T1, BID (Mus musculus, UniProt P70444); experiment: NMR binding to BID (HSQC/TROSY chemical shifts)
T1 construct: poly-His (N); made in house; host or cells: E. coli BL21
T1 sequence (P70444 1-195): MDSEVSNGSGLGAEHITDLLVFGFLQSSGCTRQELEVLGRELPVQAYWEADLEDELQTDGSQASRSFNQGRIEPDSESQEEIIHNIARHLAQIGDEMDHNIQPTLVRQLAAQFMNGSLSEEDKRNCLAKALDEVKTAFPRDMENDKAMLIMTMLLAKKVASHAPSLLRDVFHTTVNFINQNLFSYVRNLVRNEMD
Procedure: (§1) Recombinant full length mouse BID was produced from a pET-19b (Novagen) plasmid construct containing the entire nucleotide sequence for BID fused to an N-terminal poly-His tag. Unlabeled BID was expressed in E. coli BL21 in LB media at 37° C., with an induction period of 3-4 hours with 1 mM IPTG. ^15N-labeled BID was similarly produced, with growth occurring in M9 media supplemented with 0.5 g/L ^15NH4Cl. ε-^13C-Met labeled BID was produced in M9 media supplemented with 50 mg/L of ε-^13C-Met at time of induction with IPTG. Following cell lysis, soluble BID was purified over a Hi-Trap chelating column (Amersham, Pharmacia), followed by ion-exchange purification with a MonoQ (Amersham, Pharmacia) column. Final BID samples were dialyzed into a buffer appropriate for the subsequent experiments. tBID was produced by cleavage of purified BID with caspase-8, as known in the art.
For all NMR experiments, BID was exchanged into 50 mM phosphate buffer at pH 7.5 and measurements were performed at 30° C. 2D [^15N,^1H]-TROSY spectra for BID were measured with 0.5 mM samples of ^15N-labeled BID. 2D [^13C,^1H]-HSQC spectra were measured with 0.2 mM samples of ε-^13C-Met labeled BID. 2D [^1H,^1H]-NOESY spectra were acquired with small molecules at a concentration of 0.9 mM in the presence of 10 μM BID. T1ρ competition experiments (200 msec spin-lock duration) were performed on either 100 μM BI-2A7 or a mixture of 100 μM BI-2A7 and 10 μM BI-6C9, in the presence and absence of 10 μM BID. All experiments were performed with either a 500 MHz or 600 MHz Bruker Avance spectrometer, both equipped with TXI probes. Typical parameters for the 2D [^15N,^1H]-TROSY spectra included ^1H and ^15N π/2 pulse lengths of 11 μsec and 40 μsec, respectively; ^1H and ^15N sweep widths of 12 ppm and 32 ppm, respectively; 16 scans and 256 indirect acquisition points and a recycle delay of 1 sec. For the 2D [^13C,^1H]-HSQC typical parameters included ^1H and ^13C π/2 pulse lengths of 10 μsec and 13 μsec, respectively; ^1H and ^13C sweep widths of 12 ppm and 5 ppm, respectively; 128 scans and 80 indirect acquisition points and a recycle delay of 1 sec. […]
To examine the binding affinity of some compounds of the invention to BID, 2D [^13C,^1H]-HSQC spectra in presence of ^13C methionine-labeled protein were measured, as at least one methionine is present in the hydrophobic groove of BID (FIG. 4B). […]
Monitoring the variation of cross-peak intensity upon addition of increasing amounts of compound II, allowed to estimate its dissociation constant KD. The arrow on FIG. 5C indicates the peak that was monitored to determine the Kd for compound II. […]

BCL-XL = BCL-XL (Homo sapiens, UniProt Q07817); experiment: NMR-binding assay against BCL-XL
Chain of BCL-XL (Q07817 whole entry, species assumed): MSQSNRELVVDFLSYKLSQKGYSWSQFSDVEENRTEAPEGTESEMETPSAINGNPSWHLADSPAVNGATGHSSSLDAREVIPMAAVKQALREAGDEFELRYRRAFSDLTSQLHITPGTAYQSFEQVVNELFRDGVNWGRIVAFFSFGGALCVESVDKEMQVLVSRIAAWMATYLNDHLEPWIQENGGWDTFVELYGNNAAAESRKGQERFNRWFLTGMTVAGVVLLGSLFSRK

tBID = biological target: T2, tBID (Mus musculus, UniProt P70444); experiment: NMR chemical shift mapping with tBID (BID cleaved with caspase-8); type: binding; conditions: 15N-BID after cleavage with caspase-8
T2 construct: tBID was produced by cleavage of purified BID with caspase-8, as known in the art; made in house; host or cells: E. coli BL21 (BID), then cleaved in vitro with caspase-8
T2 sequence (P70444 60-195 limits assumed): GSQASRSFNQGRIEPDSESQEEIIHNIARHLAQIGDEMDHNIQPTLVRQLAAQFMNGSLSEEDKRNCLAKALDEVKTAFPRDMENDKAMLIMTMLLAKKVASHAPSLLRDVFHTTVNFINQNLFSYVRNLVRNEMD
T2 sequence (P70444 1-59 partner limits assumed): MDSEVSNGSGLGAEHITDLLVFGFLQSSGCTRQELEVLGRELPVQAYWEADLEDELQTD
Procedure: as §1
For all NMR experiments, BID was exchanged into 50 mM phosphate buffer at pH 7.5 and measurements were performed at 30° C. 2D [^15N,^1H]-TROSY spectra for BID were measured with 0.5 mM samples of ^15N-labeled BID. 2D [^13C,^1H]-HSQC spectra were measured with 0.2 mM samples of ε-^13C-Met labeled BID. 2D [^1H,^1H]-NOESY spectra were acquired with small molecules at a concentration of 0.9 mM in the presence of 10 μM BID. […]

SMILES: Nc1ccc(Sc2ccc(NC(=O)CNC(=O)c3ccc(O)cc3O)cc2)cc1 [Compound I, N-((4-(4-aminophenylthio)phenylcarbamoyl)methyl)-2,4-dihydroxybenzamide]
- specific binding to BID, affinity range (BID; 2D [15N-1H]-TROSY chemical shift perturbations): low micromolar range
- binding to BID (BID; NMR): strong binder
- binding to BCL-XL (BCL-XL): did not show appreciable binding
- binding to tBID compared with full-length BID (tBID): higher affinity

SMILES: COc1ccc(S(=O)(=O)NCCCC(=O)Nc2ccc(Sc3ccc(N)cc3)cc2)cc1 [Compound II, N-[4-(4-amino-phenylsulfanyl)-phenyl]-4-(4-methoxy-benzenesulfonylamino)-butyramide]
- pKd (BID; 2D [13C,1H]-HSQC, 13C methionine-labeled BID, cross-peak intensity upon titration, read-out: dissociation constant KD): ~4.70
- binding to BCL-XL (BCL-XL): does not bind appreciably; also recorded: did not show appreciable binding
- binding to tBID compared with full-length BID (tBID): binding even better
